What all share (experiment): Glasshouse herbicidal test, pre- and post-emergence (Table B1)
What all share (assay type): in vivo

Experiment [1] concerns Amaranthus palmeri (AMAPA). The note with it: 130 g/h, evaluated after 13 days; for percentage damage caused to the plant, POST Application AMAPA: post-emergence; for percentage damage caused to the plant, PRE Application AMAPA: pre-emergence. As to the method: (§1) Seeds of a variety of test species are sown in standard soil in pots (Lolium perenne (LOLPE), Amaranthus retoflexus (AMARE), Amaranthus palmeri (AMAPA), Ablution theophrasti (ABUTH), Setaria faberi (SETFA), Echinochloa crus-galli (ECHCG), Ipomoea hederacea (IPOHE)). After cultivation for one day (pre-emergence) or after 8 days cultivation (post-emergence) under controlled conditions in a glasshouse (at 24/16° C., day/night; 14 hours light; 65% humidity), the plants are sprayed with an aqueous spray solution derived from the formulation of the technical active ingredient in acetone/water (50:50) solution containing 0.5% Tween 20 (polyoxyethelyene sorbitan monolaurate, CAS RN 9005-64-5). Compounds are applied at 130 g/h unless otherwise indicated. The test plants are then grown in a glasshouse under controlled conditions in a glasshouse (at 24/16° C., day/night; 14 hours light; 65% humidity) and watered twice daily. After 13 days for pre and post-emergence, the test is evaluated for the percentage damage caused to the plant. The biological activities are shown in the following table on a five-point scale (5=80-100%; 4=60-79%; 3=40-59%; 2=20-39%; 1=0-19%).

The subject of experiment [2] is Amaranthus retoflexus (AMARE). To be noted: 130 g/h, evaluated after 13 days; for percentage damage caused to the plant, POST Application AMARE: post-emergence; for percentage damage caused to the plant, PRE Application AMARE: pre-emergence. As to the method: as §1
Experiment [3] relates to Echinochloa crus-galli (ECHCG). To be noted: 130 g/h, evaluated after 13 days; for percentage damage caused to the plant, PRE Application ECHCG: pre-emergence; for percentage damage caused to the plant, POST Application ECHCG: post-emergence. The procedure: as §1
The test system of experiment [4] is Ipomoea hederacea (IPOHE). To be noted: 130 g/h, evaluated after 13 days; for percentage damage caused to the plant, POST Application IPOHE: post-emergence; for percentage damage caused to the plant, PRE Application IPOHE: pre-emergence. As to the method: as §1
Experiment [5] has as its system Setaria faberi (SETFA). To be noted: 130 g/h, evaluated after 13 days; for percentage damage caused to the plant, POST Application SETFA: post-emergence; for percentage damage caused to the plant, PRE Application SETFA: pre-emergence. As to the method:
as §1

On to `CCN(c1c(OC(F)(F)F)ccc(C(=O)Nc2nnnn2C)c1Cl)S(=O)(=O)CC` [Compound 1.078], for which, in experiment [1], the “percentage damage caused to the plant, POST Application AMAPA” value was 5 (5=80-100%) and the “percentage damage caused to the plant, PRE Application AMAPA” value was 5 (5=80-100%). Moreover, in experiment [2], the “percentage damage caused to the plant, POST Application AMARE” value is given as 5 (5=80-100%) and the “percentage damage caused to the plant, PRE Application AMARE” value is 5 (5=80-100%). The “percentage damage caused to the plant, PRE Application ECHCG” value in experiment [3] is listed as 5 (5=80-100%). In experiment [4], the “percentage damage caused to the plant, POST Application IPOHE” value is given as 4 (4=60-79%) and the “percentage damage caused to the plant, PRE Application IPOHE” value is on record as 4 (4=60-79%). In experiment [5], the “percentage damage caused to the plant, POST Application SETFA” value is 5 (5=80-100%) and the “percentage damage caused to the plant, PRE Application SETFA” value is 5 (5=80-100%).

`CN(c1c(OC(F)(F)F)ccc(C(=O)Nc2nnnn2C)c1Cl)S(C)(=O)=O` [Compound 1.077]: in experiment [1], the “percentage damage caused to the plant, POST Application AMAPA” value is reported as 5 (5=80-100%) and the “percentage damage caused to the plant, PRE Application AMAPA” value is 5 (5=80-100%). In experiment [2], the “percentage damage caused to the plant, POST Application AMARE” value was 5 (5=80-100%) and the “percentage damage caused to the plant, PRE Application AMARE” value is on record as 5 (5=80-100%). In experiment [3], the “percentage damage caused to the plant, PRE Application ECHCG” value was 5 (5=80-100%). In experiment [4], the “percentage damage caused to the plant, POST Application IPOHE” value was 4 (4=60-79%) and the “percentage damage caused to the plant, PRE Application IPOHE” value is listed as 4 (4=60-79%). In experiment [5], the “percentage damage caused to the plant, POST Application SETFA” value is 5 (5=80-100%) and the “percentage damage caused to the plant, PRE Application SETFA” value was 5 (5=80-100%).

Turning to `CN(c1c(OC(F)F)ccc(C(=O)Nc2nnnn2C)c1Cl)S(C)(=O)=O` [Compound 1.071], in experiment [1], the “percentage damage caused to the plant, POST Application AMAPA” value is listed as 5 (5=80-100%) and the “percentage damage caused to the plant, PRE Application AMAPA” value is reported as 5 (5=80-100%). Further, in experiment [2], the “percentage damage caused to the plant, POST Application AMARE” value was 5 (5=80-100%) and the “percentage damage caused to the plant, PRE Application AMARE” value was 5 (5=80-100%). In addition, in experiment [3], the “percentage damage caused to the plant, POST Application ECHCG” value is on record as 5 (5=80-100%) and the “percentage damage caused to the plant, PRE Application ECHCG” value is on record as 5 (5=80-100%). In experiment [4], the “percentage damage caused to the plant, POST Application IPOHE” value is listed as 4 (4=60-79%) and the “percentage damage caused to the plant, PRE Application IPOHE” value is on record as 3 (3=40-59%). For the same compound, in experiment [5], the “percentage damage caused to the plant, POST Application SETFA” value is reported as 5 (5=80-100%) and the “percentage damage caused to the plant, PRE Application SETFA” value was 5 (5=80-100%).

For the compound `CCCS(=O)(=O)Nc1c(OC(F)(F)F)ccc(C(=O)Nc2nnnn2C)c1Cl` [Compound 1.072], in experiment [1], the “percentage damage caused to the plant, POST Application AMAPA” value was 5 (5=80-100%) and the “percentage damage caused to the plant, PRE Application AMAPA” value is on record as 5 (5=80-100%). In experiment [2], the “percentage damage caused to the plant, POST Application AMARE” value is listed as 5 (5=80-100%) and the “percentage damage caused to the plant, PRE Application AMARE” value is listed as 5 (5=80-100%). Moreover, the “percentage damage caused to the plant, PRE Application ECHCG” value in experiment [3] was 5 (5=80-100%). In experiment [4], the “percentage damage caused to the plant, POST Application IPOHE” value is 5 (5=80-100%) and the “percentage damage caused to the plant, PRE Application IPOHE” value is given as 5 (5=80-100%). In experiment [5], the “percentage damage caused to the plant, POST Application SETFA” value is reported as 5 (5=80-100%) and the “percentage damage caused to the plant, PRE Application SETFA” value is reported as 5 (5=80-100%).

With `Cn1nnnc1NC(=O)c1ccc(OC(F)(F)F)c(NS(=O)(=O)CC2CC2)c1Cl` [Compound 1.056], in experiment [1], the “percentage damage caused to the plant, POST Application AMAPA” value was 5 (5=80-100%) and the “percentage damage caused to the plant, PRE Application AMAPA” value is listed as 5 (5=80-100%). For the same compound, in experiment [2], the “percentage damage caused to the plant, POST Application AMARE” value is given as 5 (5=80-100%) and the “percentage damage caused to the plant, PRE Application AMARE” value was 5 (5=80-100%). In experiment [3], the “percentage damage caused to the plant, POST Application ECHCG” value was 5 (5=80-100%) and the “percentage damage caused to the plant, PRE Application ECHCG” value is 5 (5=80-100%). For the same compound, in experiment [4], the “percentage damage caused to the plant, POST Application IPOHE” value is listed as 5 (5=80-100%) and the “percentage damage caused to the plant, PRE Application IPOHE” value is given as 5 (5=80-100%). Also, in experiment [5], the “percentage damage caused to the plant, POST Application SETFA” value is listed as 5 (5=80-100%) and the “percentage damage caused to the plant, PRE Application SETFA” value is reported as 5 (5=80-100%).
